Data: ChEMBL document CHEMBL1201862, “PubChem BioAssay data set” (2004)
Active and inactive are the calls of the source.

How the values were obtained:
Vero = assay: cells; type: functional; settings: Chlorocebus sabaeus
[1] = molecular target: T1, Heat shock factor protein 1 (Mus musculus, UniProt P38532); assay: HSF1 potentiators in luciferase reporter cells, confirmation, cell-based, NIH3T3, luminescence, dose retest (AID 435004); type: functional;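 further: stress induced by proteasome inhibitor MG132 added 30 min after compound; luciferase reporter driven by HSF1 response element in NIH3T3 cells; actives raise luminescence as potentiators of the MG132 stress response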
T1 sequence (P38532 whole entry): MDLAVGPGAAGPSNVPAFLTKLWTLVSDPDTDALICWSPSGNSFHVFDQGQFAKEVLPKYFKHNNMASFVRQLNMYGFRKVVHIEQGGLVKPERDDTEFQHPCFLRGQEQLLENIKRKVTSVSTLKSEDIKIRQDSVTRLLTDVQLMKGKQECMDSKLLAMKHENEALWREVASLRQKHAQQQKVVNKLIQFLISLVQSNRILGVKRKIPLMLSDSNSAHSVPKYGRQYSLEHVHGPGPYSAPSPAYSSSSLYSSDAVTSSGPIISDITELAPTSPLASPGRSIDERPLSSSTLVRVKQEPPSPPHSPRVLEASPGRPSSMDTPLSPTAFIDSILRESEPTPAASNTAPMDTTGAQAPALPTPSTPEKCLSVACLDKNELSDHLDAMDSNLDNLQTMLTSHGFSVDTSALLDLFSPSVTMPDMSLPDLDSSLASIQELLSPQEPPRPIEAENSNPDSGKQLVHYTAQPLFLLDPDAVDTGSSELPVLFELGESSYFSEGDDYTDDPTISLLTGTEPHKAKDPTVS

Protein skinhead-1 = molecular target: T2, Protein skinhead-1 (Caenorhabditis elegans, UniProt P34707); type: functional
T2 sequence (P34707 whole entry): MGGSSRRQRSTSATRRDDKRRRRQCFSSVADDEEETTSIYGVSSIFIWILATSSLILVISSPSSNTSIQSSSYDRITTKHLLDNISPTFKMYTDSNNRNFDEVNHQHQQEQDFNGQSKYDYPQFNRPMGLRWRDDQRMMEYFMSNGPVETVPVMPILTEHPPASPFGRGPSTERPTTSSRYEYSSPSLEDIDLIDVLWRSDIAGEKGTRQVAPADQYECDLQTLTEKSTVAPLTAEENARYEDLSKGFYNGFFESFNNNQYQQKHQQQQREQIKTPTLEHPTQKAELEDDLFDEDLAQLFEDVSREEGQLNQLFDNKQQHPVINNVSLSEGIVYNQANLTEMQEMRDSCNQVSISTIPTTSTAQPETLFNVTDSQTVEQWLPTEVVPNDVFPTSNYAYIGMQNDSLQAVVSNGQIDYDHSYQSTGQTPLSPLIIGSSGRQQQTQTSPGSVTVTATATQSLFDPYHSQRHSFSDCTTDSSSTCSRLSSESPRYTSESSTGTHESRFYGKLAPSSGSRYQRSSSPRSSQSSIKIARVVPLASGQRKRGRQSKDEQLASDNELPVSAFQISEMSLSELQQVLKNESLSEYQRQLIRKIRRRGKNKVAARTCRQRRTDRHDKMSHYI

[2] = molecular target: Hepatocyte nuclear factor 4-alpha (Homo sapiens, UniProt P41235); type: functional, cell-based;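 further: biochemical luminescence-based dose-response counterscreen measuring inhibition of HNF4 dimerization, run alongside a screen for blockers of ABHD5–perilipin-5 interaction; split luciferase complementation of HNF4 fusion proteins in cell lysate measuring dimerization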
Hepatocyte nuclear factor 4-alpha, sequence (P41235 whole entry, the tested form may be a part): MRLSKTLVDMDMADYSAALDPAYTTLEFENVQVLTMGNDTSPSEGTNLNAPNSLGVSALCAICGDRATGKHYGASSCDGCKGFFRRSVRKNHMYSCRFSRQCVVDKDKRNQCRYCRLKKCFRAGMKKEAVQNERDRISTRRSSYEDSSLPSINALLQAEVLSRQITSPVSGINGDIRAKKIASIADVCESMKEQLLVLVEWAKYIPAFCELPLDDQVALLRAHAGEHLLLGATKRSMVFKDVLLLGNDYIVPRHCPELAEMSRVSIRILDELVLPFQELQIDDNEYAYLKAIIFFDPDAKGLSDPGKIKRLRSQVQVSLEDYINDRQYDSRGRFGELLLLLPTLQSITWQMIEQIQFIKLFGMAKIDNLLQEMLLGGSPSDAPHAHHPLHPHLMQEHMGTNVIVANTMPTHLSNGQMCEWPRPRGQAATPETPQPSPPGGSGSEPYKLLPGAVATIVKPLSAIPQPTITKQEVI

[3] = Luminescence Cell-Based Dose Retest to Confirm Inhibitors of Cancer Stem Cells. [Related pubchem assays (depositor defined):AID2717, AID2721]; type: functional; settings: Homo sapiens
[4] = molecular target: T3, Beta-2 adrenergic receptor (Homo sapiens, UniProt P07550); assay: Dose response for HTS for Beta-2AR agonists via FAP method from Powderset1.; type: functional
T3 sequence (P07550 whole entry): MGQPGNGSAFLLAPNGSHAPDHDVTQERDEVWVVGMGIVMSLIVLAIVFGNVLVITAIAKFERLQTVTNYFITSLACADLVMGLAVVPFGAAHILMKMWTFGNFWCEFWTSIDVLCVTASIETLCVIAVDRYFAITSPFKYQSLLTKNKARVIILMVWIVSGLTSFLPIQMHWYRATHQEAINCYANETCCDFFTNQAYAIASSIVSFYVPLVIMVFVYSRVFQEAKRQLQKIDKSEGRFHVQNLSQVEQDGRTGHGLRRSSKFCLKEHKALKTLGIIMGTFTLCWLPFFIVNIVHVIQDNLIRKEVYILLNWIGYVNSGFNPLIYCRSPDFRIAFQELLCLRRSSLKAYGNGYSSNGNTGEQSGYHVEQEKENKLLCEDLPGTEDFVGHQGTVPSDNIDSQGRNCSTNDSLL

[5] = Cytotoxicity Dose Response with AM2.2-beta2AR cells for PowderSet01.; type: functional, cell-based; settings: read-out: EC50_MICROM
[6] = molecular target: T3, Beta-2 adrenergic receptor; assay: beta2AR agonists driving receptor internalization, dose response, cell-based, FAP fluorogen, flow cytometry, cherry pick 1 (AID 588763); type: functional
[7] = molecular target: T4, Tyrosine-protein phosphatase non-receptor type 22 (Homo sapiens, UniProt Q9Y2R2); assay: PTPN22 phosphatase inhibition, dose response, selectivity assay for STEP inhibitor project, biochemical (AID 624241); type: functional
T4 sequence (Q9Y2R2 whole entry): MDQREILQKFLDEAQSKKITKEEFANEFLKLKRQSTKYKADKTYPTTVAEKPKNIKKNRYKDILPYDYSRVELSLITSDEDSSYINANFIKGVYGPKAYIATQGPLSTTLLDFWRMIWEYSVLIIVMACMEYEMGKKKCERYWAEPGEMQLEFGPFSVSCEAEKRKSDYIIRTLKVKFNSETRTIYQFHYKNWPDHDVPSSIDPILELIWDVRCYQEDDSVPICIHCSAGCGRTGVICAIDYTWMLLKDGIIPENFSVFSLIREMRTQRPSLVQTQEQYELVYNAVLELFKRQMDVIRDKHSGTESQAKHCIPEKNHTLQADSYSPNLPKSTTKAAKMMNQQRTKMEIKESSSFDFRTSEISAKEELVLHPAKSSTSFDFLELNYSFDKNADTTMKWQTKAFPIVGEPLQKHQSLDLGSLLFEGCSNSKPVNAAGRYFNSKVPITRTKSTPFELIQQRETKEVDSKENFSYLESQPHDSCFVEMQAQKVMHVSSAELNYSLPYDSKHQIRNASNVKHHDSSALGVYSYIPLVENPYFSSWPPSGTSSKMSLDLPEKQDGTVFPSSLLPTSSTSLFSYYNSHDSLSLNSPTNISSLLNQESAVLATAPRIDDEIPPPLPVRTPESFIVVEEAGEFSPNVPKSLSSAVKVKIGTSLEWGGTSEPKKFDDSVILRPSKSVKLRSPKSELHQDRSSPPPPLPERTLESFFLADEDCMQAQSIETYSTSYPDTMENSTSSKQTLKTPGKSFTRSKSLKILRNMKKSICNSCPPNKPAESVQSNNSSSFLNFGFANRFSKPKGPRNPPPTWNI

[8] = molecular target: Glucose-6-phosphate 1-dehydrogenase (Homo sapiens, UniProt P11413); assay: human G6PD enzyme inhibitors, dose response, selectivity assay for P. falciparum G6PD inhibitor project, biochemical, fluorescence (AID 504792); type: functional
Glucose-6-phosphate 1-dehydrogenase, sequence (P11413 whole entry): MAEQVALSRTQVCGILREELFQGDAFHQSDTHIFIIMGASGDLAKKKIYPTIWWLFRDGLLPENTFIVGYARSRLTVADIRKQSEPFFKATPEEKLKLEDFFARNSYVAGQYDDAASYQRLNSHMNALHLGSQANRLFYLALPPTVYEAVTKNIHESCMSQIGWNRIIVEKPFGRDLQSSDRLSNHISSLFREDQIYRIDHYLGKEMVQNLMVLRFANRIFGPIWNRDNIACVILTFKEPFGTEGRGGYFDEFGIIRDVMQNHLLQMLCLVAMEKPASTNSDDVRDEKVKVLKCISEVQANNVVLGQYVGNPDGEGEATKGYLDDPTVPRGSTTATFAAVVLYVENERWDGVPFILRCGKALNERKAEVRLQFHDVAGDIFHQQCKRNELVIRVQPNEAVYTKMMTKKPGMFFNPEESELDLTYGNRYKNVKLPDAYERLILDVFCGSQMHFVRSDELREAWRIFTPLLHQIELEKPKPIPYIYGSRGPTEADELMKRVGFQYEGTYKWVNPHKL

[9] = molecular target: Tyrosine-protein phosphatase non-receptor type 11 (Homo sapiens, UniProt Q06124); assay: SHP2 phosphatase inhibition, dose response, selectivity assay for STEP inhibitor project, biochemical (AID 602367); type: functional; settings: read-out: IC50_Mean
Tyrosine-protein phosphatase non-receptor type 11, sequence (Q06124 whole entry): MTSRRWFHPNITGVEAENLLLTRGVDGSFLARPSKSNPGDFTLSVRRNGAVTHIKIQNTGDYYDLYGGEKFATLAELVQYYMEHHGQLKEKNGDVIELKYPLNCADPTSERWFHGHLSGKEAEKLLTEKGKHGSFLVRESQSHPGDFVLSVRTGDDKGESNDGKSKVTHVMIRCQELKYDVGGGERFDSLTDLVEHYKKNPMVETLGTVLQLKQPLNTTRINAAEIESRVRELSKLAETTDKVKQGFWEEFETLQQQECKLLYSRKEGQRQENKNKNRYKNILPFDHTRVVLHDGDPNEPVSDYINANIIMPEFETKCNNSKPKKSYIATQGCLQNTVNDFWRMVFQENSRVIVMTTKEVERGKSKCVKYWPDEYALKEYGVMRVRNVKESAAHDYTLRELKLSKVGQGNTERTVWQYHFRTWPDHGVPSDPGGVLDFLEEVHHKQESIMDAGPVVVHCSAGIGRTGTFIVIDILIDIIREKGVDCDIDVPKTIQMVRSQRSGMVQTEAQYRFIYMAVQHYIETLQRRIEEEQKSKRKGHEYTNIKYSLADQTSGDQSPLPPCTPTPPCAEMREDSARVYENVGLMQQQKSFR

[10] = molecular target: Tyrosine-protein phosphatase non-receptor type 5 (Homo sapiens, UniProt P54829); assay: STEP phosphatase inhibitors, confirmation, biochemical, fluorescence intensity, uHTS hits (AID 602372); type: functional; settings: read-out: IC50_Mean
Tyrosine-protein phosphatase non-receptor type 5, sequence (P54829 whole entry): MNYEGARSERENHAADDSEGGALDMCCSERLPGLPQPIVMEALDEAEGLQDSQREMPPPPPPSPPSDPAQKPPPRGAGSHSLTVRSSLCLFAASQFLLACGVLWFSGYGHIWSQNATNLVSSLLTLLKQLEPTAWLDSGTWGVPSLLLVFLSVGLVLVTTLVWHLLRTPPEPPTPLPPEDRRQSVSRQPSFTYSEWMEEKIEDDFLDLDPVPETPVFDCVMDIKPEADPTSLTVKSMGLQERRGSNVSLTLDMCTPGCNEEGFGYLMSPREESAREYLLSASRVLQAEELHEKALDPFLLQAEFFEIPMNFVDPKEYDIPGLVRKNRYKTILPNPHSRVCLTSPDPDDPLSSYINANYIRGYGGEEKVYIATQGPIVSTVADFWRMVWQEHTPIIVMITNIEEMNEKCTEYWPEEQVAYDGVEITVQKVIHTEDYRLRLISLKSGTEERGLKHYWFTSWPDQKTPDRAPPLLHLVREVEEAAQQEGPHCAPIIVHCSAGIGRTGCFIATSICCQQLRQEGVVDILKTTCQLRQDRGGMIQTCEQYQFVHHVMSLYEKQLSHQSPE

[11] = molecular target: Dual specificity protein phosphatase 3 (Homo sapiens, UniProt P51452); assay: VHR phosphatase inhibition, dose response, selectivity assay for STEP inhibitor project, biochemical (AID 602374); type: functional; settings: read-out: IC50_Mean
Dual specificity protein phosphatase 3, sequence (P51452 whole entry): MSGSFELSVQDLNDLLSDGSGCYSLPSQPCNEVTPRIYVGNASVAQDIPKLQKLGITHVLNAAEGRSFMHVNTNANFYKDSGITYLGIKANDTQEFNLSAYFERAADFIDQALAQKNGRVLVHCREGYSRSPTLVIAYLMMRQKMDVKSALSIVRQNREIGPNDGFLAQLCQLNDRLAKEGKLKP

INS1 = assay: beta cell apoptosis inhibitors, cytokine rescue, dose response, luminescence, retest (AID 449756); type: functional, cell-based; settings: Rattus norvegicus;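 further: cell death triggered by IL-1 beta plus TNF-alpha plus IFN-gamma mixture; protective hits raise ATP signal compared with cytokine alone wells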
[12] = tested on: Streptococcus sp. 'group A'; assay: growth inhibition of control SK(-) GAS strain, dose response, counter-screen for streptokinase expression inhibitor project, luminescence, kanamycin, BacTiterGlo, confirmation (AID 1900); type: functional, organism-based
[13] = control 3'UTR Renilla luciferase suppression, dose response, counter-screen for Shn3 inhibitor project, cell-based, Clone20-Shn3RL, cherry-picked (AID 624133); type: functional
Streptokinase A = molecular target: T5, Streptokinase A (Streptococcus pyogenes serotype M1, UniProt P10520); assay: S. pyogenes streptokinase expression inhibitors, potency, dose response, plasminogen activation absorbance, OD405 (AID 1914); type: functional, Streptococcus pyogenes M1 GAS;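 further: secreted streptokinase activity via plasminogen activation per viability signal from cell pellet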
T5 sequence (P10520 whole entry): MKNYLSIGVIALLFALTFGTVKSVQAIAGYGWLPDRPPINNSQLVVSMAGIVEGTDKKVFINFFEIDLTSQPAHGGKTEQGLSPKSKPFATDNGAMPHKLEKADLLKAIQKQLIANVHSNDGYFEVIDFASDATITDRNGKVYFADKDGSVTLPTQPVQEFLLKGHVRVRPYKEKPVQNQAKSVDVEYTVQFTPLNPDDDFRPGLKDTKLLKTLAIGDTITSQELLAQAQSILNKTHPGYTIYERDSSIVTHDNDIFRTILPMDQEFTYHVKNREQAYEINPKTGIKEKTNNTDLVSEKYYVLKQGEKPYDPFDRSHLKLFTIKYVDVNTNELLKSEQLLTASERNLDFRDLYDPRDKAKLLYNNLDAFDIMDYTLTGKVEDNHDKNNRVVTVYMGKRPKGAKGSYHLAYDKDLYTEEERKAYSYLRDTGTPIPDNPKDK

Nonstructural protein 1 = Nonstructural protein 1 (Influenza A virus, UniProt Q194T2); type: functional, Influenza A virus (A/California/07/2009(H1N1))
Nonstructural protein 1, sequence (Q194T2 whole entry, the tested form may be a part): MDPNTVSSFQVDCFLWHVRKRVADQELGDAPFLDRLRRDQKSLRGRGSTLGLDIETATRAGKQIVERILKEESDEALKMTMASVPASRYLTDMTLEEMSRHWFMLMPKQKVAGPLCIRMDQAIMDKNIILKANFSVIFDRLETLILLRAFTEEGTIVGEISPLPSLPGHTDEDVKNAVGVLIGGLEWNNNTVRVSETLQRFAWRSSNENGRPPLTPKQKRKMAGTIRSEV

[14] = molecular target: Photoreceptor-specific nuclear receptor (Homo sapiens, UniProt Q9Y5X4); type: functional, cell-based;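 further: CHO-S cells with Gal4-NCOR and VP16-NR2E3 two-hybrid luciferase reporter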
Photoreceptor-specific nuclear receptor, sequence (Q9Y5X4 whole entry, the tested form may be a part): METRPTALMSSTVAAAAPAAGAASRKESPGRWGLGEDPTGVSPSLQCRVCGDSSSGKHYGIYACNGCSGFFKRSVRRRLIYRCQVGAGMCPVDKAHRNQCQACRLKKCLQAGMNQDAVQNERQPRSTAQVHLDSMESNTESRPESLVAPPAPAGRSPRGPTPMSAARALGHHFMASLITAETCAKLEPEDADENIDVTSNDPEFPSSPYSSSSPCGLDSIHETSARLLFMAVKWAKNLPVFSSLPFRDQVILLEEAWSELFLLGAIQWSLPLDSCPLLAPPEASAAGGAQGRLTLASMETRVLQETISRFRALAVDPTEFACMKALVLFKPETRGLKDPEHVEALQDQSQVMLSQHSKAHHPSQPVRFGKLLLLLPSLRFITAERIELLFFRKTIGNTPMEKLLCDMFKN

Streptococcus = assay: Group A Streptococcus viability loss, dose response, counter-screen for streptokinase expression inhibitor project, luminescence, BacTiterGlo (AID 1915); type: functional, organism-based;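 further: potency for reduction of bacterial viability or growth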
[15] = HepG2 cell cytotoxicity, dose response, cytotoxicity control for Shn3 inhibitor project, CellTiter-Glo, cherry-picked (AID 624134); type: functional, cell-based
[16] = Shn3 3'UTR reporter inhibitors, dose response, cell-based, Clone20 osteoblasts, firefly luciferase, cherry-picked (AID 624132); type: functional;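 further: firefly luciferase luminescence from reporter carrying the Shn3 3'UTR in osteoblasts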

## O=C(/C=C/Sc1ccccc1)c1ccc(Cl)cc1
Vero
  CC50: 14.2 µM (active)
[1]
  EC50: 9.05 µM (active)
Protein skinhead-1
  IC50: 31 µM (active)
[2]
  IC50: 6.31 µM (active)
[3]
  AC50: 3.46 µM (active)

## O=C(Nc1ccc(S(=O)(=O)N2CCCCC2c2cccnc2)cc1)c1c(F)cccc1F (configuration not stated)
[4]
  EC50: 0.119 µM (active)
[5]
  EC50: 5.39 µM (active)
[6]
  EC50: 2.46 µM (active)

## Cc1cc(C)c(NC(S)=NCC2CCN(C(C)c3ccccc3)C2)c(C)c1 (configuration not stated)
[7]
  IC50: 48.4 µM (inactive)
[8]
  IC50: > 80 µM (inactive)
[9]
  IC50: 0.934 µM (active)
[10]
  IC50: 6.09 µM (active)
[11]
  IC50: 0.343 µM (active)

## CC(C)(C)Nc1nc(-c2ccccn2)nc2ccccc12
INS1
  AC50: 2.06 µM (active)
[12]
  EC50: 2.48 µM (active)
[13]
  AC50: 1.42 µM (active)
Streptokinase A
  EC50: > 150 µM (not active)
Nonstructural protein 1
  IC50: 12.2 µM (active)
[14]
  IC50: 3.88 µM (active)
Streptococcus
  EC50: 5.93 µM (active)
[15]
  AC50: > 70 µM (inactive)
[16]
  AC50: 1.86 µM (active)
